# From the METLIN SMRT retention time set (Domingo-Almenara et al. 2019)
# Test: gradient 5% acetonitrile 3 min, to 50% in 2 min, to 85% in 15 min, held 3 min, 100 µL/min
# Conditions: column: Zorbax Extend-C18 2.1 x 50 mm; eluents: water / acetonitrile, 0.1% formic acid
# Method in brief: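 Standards, all pure, were combined into mixtures of ~100 molecules and run at 100 μL/min on a Zorbax Extend-C18 column (2.1 × 50 mm, 1.8 μm) with water and acetonitrile, each containing 0.1% formic acid. A coupled quadrupole time-of-flight mass spectrometer operated in positive and negative ionization mode. Retention time values come from computationally picked adduct peaks, each inspected manually.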
row,SMILES,RP-LC retention time
1,COc1ccc(CCNC(=O)CCc2nnc3c4cc(-c5ccc(C)c(C)c5)nn4ccn23)cc1OC,802 s
2,Fc1ccc(OCc2cn(C3CN(Cc4cccc(F)c4)C3)nn2)cc1,688 s
3,COc1cccc(NC(=O)CN2C(=O)NC3(CCCCC3)C2=O)c1,724 s
4,OCC(O)COc1cccc2ccccc12 (configuration not stated),758 s
5,O=C(COc1cccc2ccc(N3CCOCC3)nc12)NCC1CCCO1 (configuration not stated),564 s
6,Cn1cc(-c2ccc(F)cc2)cc1C(=O)N1CCCC1,906 s
7,CN(C)CC1(O)CCC2(CCN(C(=O)CCC3CCCC3)CC2)CC1,639 s
8,CN(CCc1noc(-c2ccc(Cl)cc2)n1)C(=O)c1ccc(C#N)cc1,908 s
9,O=C(Cn1c(=O)c2cccn2c2ccc(F)cc21)N1CCN(c2ccccn2)CC1,605 s
10,O=S(=O)(Nc1cccc(-c2cn3ccccc3n2)c1)c1ccccc1,626 s
11,COc1ccc(OC)c(S(=O)(=O)N2CCC(Cc3nncn3C)C2)c1 (configuration not stated),619 s
12,Cc1ccc(Cl)cc1NC(=O)C(=O)c1cccn1C,878 s
13,Cc1cc(C)cc(C(=O)N2CCC(COc3ccc(C(=O)NC(C)C)cc3)CC2)c1,953 s
14,Cc1ccc(-c2nc3n(c2CNC(=O)c2ccco2)CCS3)cc1,639 s
15,O=C(NCCc1nc2cccnc2n1-c1ccccc1)c1ccccc1,708 s
16,Cc1nn(-c2ccccc2)c(C)c1S(=O)(=O)N1CCC(C(=O)NC2CCCCCC2)CC1,965 s
17,Cc1cc(C)cc(S(=O)(=O)N2CCC(n3cnc4c(C)cccc4c3=O)CC2)c1,1070 s
18,COc1ccc(Cl)cc1NC(=O)CSc1cc(N2CCN(c3ccccc3OC)CC2)ncn1,1240 s
19,Cc1cccc(C)c1OCC(=O)c1ccc2c(c1)N(CCCC(=O)NCC1CCCO1)C(=O)CO2 (configuration not stated),803 s
20,COc1ccc(-c2cc(N3CCN(C(=O)c4ccc5[nH]ccc5c4)CC3)n[nH]2)cc1,703 s
21,COc1ccc(-c2nc3cccnc3n2C2CCN(C(=O)c3ccc4c(c3)OCO4)C2)cc1 (configuration not stated),716 s
22,Cc1cc(=O)n(CC(=O)Nc2cccc(C)c2C)c(N2CCOCC2)n1,673 s
23,O=C(c1ccc(Cl)cc1)N1CCC(n2c(-c3ccoc3)nc3cccnc32)C1 (configuration not stated),782 s

row,SMILES,RP-LC retention time
1,COc1ccc(C(=O)N2CCN(c3cc(-c4cccs4)[nH]n3)CC2)cc1,749 s
2,CCNC(=O)C1(C)CC(c2ccccc2)=NO1 (configuration not stated),732 s
3,COc1ccc(C2C(=O)N(C3CCCCC3)CC(=O)N2Cc2ccc3c(c2)OCO3)cc1OC (configuration not stated),894 s
4,N#CCSC1=NS(=O)(=O)c2cc(F)ccc2N1,622 s
5,COCCn1cc(C(=O)Nc2ccc(N(C)C)cc2)c2nn(-c3ccccc3)c(=O)c-2c1,710 s
6,COc1ccc(Nc2nc(N)c3ccccc3n2)cc1,610 s
7,Cc1nccn1C1CN(S(=O)(=O)c2cccc3cccnc23)C1,571 s
8,CCOc1ccccc1N1CCN(C(=O)CSc2nccnc2Oc2ccc(C)cc2)CC1,1020 s
9,CC(=O)N1c2nc(-c3ccccc3)nn2C2(CCCCC2)[C@@H]2CCCC[C@@H]21,1390 s
10,Cc1ccc(-c2nnc(-c3nc(NCCN4CCCC4)c4ccccc4n3)o2)cc1,713 s
11,O=C(C1CCN(c2cnc3nccnc3c2)CC1)N1CCN(c2ccc(Cl)cc2)CC1,810 s
12,O=C(Cn1c(=O)c2cccn2c2ccccc21)NCCCc1ccccc1,874 s
13,CCCn1c(CCc2cccc(NS(=O)(=O)c3cnn(CC)c3)c2)nc2ccccc21,675 s
14,CCC(C)NC(=O)C1CCN(S(=O)(=O)c2cc(-c3noc(C)n3)cs2)CC1 (configuration not stated),797 s
15,COc1ccccc1NC(=O)N1CCN(C2=CC3=NC(C)CN3C=N2)CC1 (configuration not stated),603 s
16,COc1cccc(-n2cc(-c3nc(-c4ccccn4)no3)c3ccccc3c2=O)c1,966 s
17,CC(Oc1ccc2c(c1)OCO2)C(=O)NCCn1nc(-c2cccs2)ccc1=O (configuration not stated),712 s
18,O=C(c1ccccc1F)N1CCN(c2cc(-c3cccs3)[nH]n2)CC1,771 s
19,O=C(NCc1ccc(F)cc1)N1CCC(c2noc(-c3cnccn3)n2)C1 (configuration not stated),705 s
20,Cc1cccc(NC(=O)Cn2c(N3CCOCC3)nc(C)cc2=O)c1,672 s
21,CC1Cc2ccccc2N1S(=O)(=O)c1cc2c3c(c1)CCC(=O)N3CCC2 (configuration not stated),961 s
22,Cc1cc(C)cc(C(=O)NC(Cc2ccccc2)c2nnc(N3CCSCC3)o2)c1 (configuration not stated),918 s
23,COc1ccccc1CC1C(=O)Nc2ccc(Cl)cc21 (configuration not stated),948 s

row,SMILES,RP-LC retention time
1,C=CCN(Cc1nc(-c2ccc(C)cc2)no1)C(=O)Nc1cccc(Cl)c1,1150 s
2,COc1ccc(CC(C)(O)CNC(=O)C2CC2)cc1 (configuration not stated),631 s
3,Cc1cc(C)nc(Nc2nc(CC(=O)Nc3nc(C)c(C(=O)N(C)C)s3)cs2)n1,646 s
4,Cn1nc(-c2nc(C3CC3)no2)c2c1CCN(C(=O)Nc1ccc(C(F)(F)F)cc1)C2,959 s
5,CN(CCO)c1cc(N2CCN(c3ccccn3)CC2)c2noc3c2c1C(=O)c1ccccc1-3,614 s
6,COc1ccc(CN2CC(=O)N(c3cccc(C)c3)[C@@H]3CS(=O)(=O)C[C@@H]32)cc1,788 s
7,COc1cc(C(CC(=O)N2CCCCCC2)N2Cc3ccccc3C2=O)cc(OC)c1OC (configuration not stated),797 s
8,CCCNC(=O)C1CCCN(c2ccc(SCC(=O)NCc3ccc(OC)cc3)nn2)C1 (configuration not stated),595 s
9,CCN1CCN(CCNC(=O)c2nc3ccccn3c2-c2ccc(Cl)cc2)CC1,782 s
10,CN1c2ccc(F)cc2C(=O)NC12CCN(C(=O)c1ccc3c(c1)OCO3)CC2,724 s
11,C=CCN1C(=O)COc2ccc(-c3nc(NC(=O)c4cc(OC)c(OC)c(OC)c4)sc3C)cc21,1050 s
12,O=C(Cn1ccc2ccc(N3CCCCCC3)nc21)N1CCC(N2CCCCC2)CC1,709 s
13,Cc1nn(C)c(C)c1S(=O)(=O)N1CCC(Cc2nc(-c3cccnc3)n[nH]2)C1 (configuration not stated),598 s
14,Cc1cc(F)ccc1NS(=O)(=O)c1cc2n(c1)CCCN(C)C2=O,687 s
15,COc1cc2c(cc1C(=O)NCCc1c[nH]c3ccccc13)OCCCO2,859 s
16,COc1cc(NC(=O)C2CCCN(c3nnc4ccc(Cl)cn34)C2)cc(OC)c1OC (configuration not stated),734 s
17,CC1CCCN(CCCNC(=O)CCC(=O)N2CCc3c(c(C(=O)N4CCCC4)nn3C)C2)C1 (configuration not stated),579 s
18,CCN1C(=O)C(C)(C(=O)Nc2ccc(C)cc2C)Oc2cccnc21 (configuration not stated),744 s
19,CC(C)CN1CCC(N2CC(COc3ccccc3)C3(CCOCC3)C2)CC1 (configuration not stated),574 s
20,O=C(Nc1cc(-c2ccccn2)no1)c1ccc2c(c1)OCO2,772 s
21,Clc1cccc(-c2ccc(CNCc3ccc4c(c3)OCO4)o2)c1,741 s
